Data: patent US11345711B2, “8,9-dihydroimidazo[1,2-a]pyrimido[5,4-e]pyrimidin-5(6H)-ones” (IMPACT THERAPEUTICS (SHANGHAI), INC, priority 2016, dated 2022)
Read-outs that look alike come from different tables or passages of the source.

Columns and labels:
[1] = target: Wee1 (h) (Homo sapiens, UniProt P30291); assay: Wee1 kinase (h) detection method, [γ-33P]-ATP filter assay; type: biochemical
[2] = tested on: LoVo cells; assay: MTT based cell viability assay on LoVo cells; conditions: Homo sapiens, LoVo, 72 h, 3 d, read-out: IC50, growth inhibition of LoVo cells
In short: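 Inhibition of LoVo proliferation was derived as IC50 from a sigmoidal dose-response fit of cell survival. Readout was MTT (0.5 mg/mL, 4 h) with absorbance at 552/630/690 nm, after 3-day treatment at 37 °C. Eight-point series from 10 μM to 0.01 μM, DMSO control, 1% DMSO final.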

[3] = tested on: NCI-H1299 cells; assay: MTT based cell viability assay on NCI-H1299 cells; conditions: Homo sapiens, read-out: IC50, growth inhibition of NCI-H1299 cells
In short: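 NCI-H1299 cells (1000/well, settled overnight) were exposed for 3 d at 37 °C, 5% CO2, to an eight-point series of 10 μM to 0.01 μM plus DMSO blank, as prepared in DMSO (final DMSO 1‰). MTT (0.5 mg/mL, 4 h) was read at 552/630/690 nm. IC50 came from sigmoidal dose-response fits of survival.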

Chain of Wee1 (h) (P30291 whole entry): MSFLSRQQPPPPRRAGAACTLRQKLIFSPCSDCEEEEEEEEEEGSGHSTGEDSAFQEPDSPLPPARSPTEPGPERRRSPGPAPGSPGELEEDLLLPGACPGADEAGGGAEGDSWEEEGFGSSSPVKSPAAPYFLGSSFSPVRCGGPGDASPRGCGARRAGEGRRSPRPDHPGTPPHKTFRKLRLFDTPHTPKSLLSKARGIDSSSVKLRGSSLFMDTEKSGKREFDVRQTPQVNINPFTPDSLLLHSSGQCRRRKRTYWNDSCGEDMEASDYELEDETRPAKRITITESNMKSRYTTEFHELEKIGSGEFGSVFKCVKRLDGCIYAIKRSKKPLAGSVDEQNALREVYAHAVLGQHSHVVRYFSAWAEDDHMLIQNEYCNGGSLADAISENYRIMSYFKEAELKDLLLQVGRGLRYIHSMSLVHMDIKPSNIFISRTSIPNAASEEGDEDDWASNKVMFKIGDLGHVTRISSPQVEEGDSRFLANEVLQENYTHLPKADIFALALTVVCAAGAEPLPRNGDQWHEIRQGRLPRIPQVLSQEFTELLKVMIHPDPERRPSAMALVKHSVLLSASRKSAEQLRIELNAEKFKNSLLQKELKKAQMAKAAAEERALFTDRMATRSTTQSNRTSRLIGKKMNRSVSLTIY

SMILES | Inh. (%) of Wee1 kinase enzyme activity ([1]; C 0.01 μm compound) | Inh. (%) of Wee1 kinase enzyme activity ([1]; C 0.1 μm compound) | Inh. (%) of Wee1 kinase enzyme activity ([1]; C 1 μm compound) | IC50 [2] | IC50 ([3]; NCI-H1299, NCI-H1299 cells) | IC50 ([3]; NCI-H1299 cells) | Inh. (%) of Wee1 kinase enzyme activity ([1]; C 10 μm compound)
CN(C)C1CCN(c2ccc(Nc3ncc4c(n3)N3CCN=C3N(c3c(Cl)cccc3Cl)C4=O)cc2Cl)CC1 [Example 139, 6-(2,6-Dichlorophenyl)-2-((3-chloro-4-(4-(dimethylamino)piperidin-1-yl)phenyl)amino)-8,9-dihydroimidazo[1,2-a]pyrimido[5,4-e]pyrimidin-5(6H)-one] | 31% | 81% | 95% | 0.0456 µM | 0.0859 µM |  | 
CN1CCN(c2ccc(Nc3ncc4c(n3)N3CCN=C3N(c3ccncc3)C4=O)cc2)CC1 [Example 99, 6-(Pyridin-4-yl)-2-((4-(4-methylpiperazin-1-yl)phenyl)amino)-8,9-dihydroimidazo[1,2-a]pyrimido[5,4-e]pyrimidin-5(6H)-one] |  |  | 8% | > 100 µM |  | > 10 µM | 
CN1CCn2nc(Nc3ncc4c(n3)N3CCN=C3N(c3c(F)cccc3Cl)C4=O)cc2C1 [Example 59, 6-(2-Chloro-6-fluorophenyl)-2-((5-methyl-4,5,6,7-tetrahydropyrazolo[1,5-a]pyrazin-2-yl)amino)-8,9-dihydroimidazo[1,2-a]pyrimido[5,4-e]pyrimidin-5(6H)-one] |  |  | 49% | > 100 µM |  | > 10 µM | 
CN1CCN(c2c(F)cc(Nc3ncc4c(n3)N3CCN=C3N(c3c(Cl)cccc3Cl)C4=O)cc2Br)CC1 [Example 154, 6-(2,6-Dichlorophenyl)-2-((3-bromo-5-fluoro-4-(4-methylpiperazin-1-yl)phenyl)amino)-8,9-dihydroimidazo[1,2-a]pyrimido[5,4-e]pyrimidin-5(6H)-one] | 25% | 72% | 96% | 0.0633 µM | 0.174 µM |  | 
CN1CCn2nc(Nc3ncc4c(n3)N3CCN=C3N(c3c(Cl)cccc3Cl)C4=O)cc2C1 [Example 79, 6-(2,6-Dichlorophenyl)-2-((5-methyl-4,5,6,7-tetrahydropyrazolo[1,5-a]pyrazin-2-yl)amino)-8,9-dihydroimidazo[1,2-a]pyrimido[5,4-e]pyrimidin-5(6H)-one] |  |  | 69% | > 100 µM |  | > 10 µM | 
CC(C)N1C(=O)c2cnc(Nc3ccc(N4CCN(C)CC4)cc3)nc2N2CCN=C21 [Example 18, 6-Isopropyl-2-((4-(4-methylpiperazin-1-yl)phenyl)amino)-8,9-dihydroimidazo[1,2-a]pyrimido[5,4-e]pyrimidin-5(6H)-one] |  |  | 14% | > 1 µM |  | > 10 µM | 
Cc1cc(Nc2ncc3c(n2)N2CCN=C2N(c2c(F)cccc2Cl)C3=O)ccc1N1C[C@@H](C)N(C)[C@@H](C)C1 [Example 51, 6-(2-Chloro-6-fluorophenyl)-2-((3-methyl-4-((3S,5R)-3,4,5-trimethylpiperazin-1-yl)phenyl)amino)-8,9-dihydroimidazo[1,2-a]pyrimido[5,4-e]pyrimidin-5(6H)-one] | 66% | 86% | 96% | 0.105 µM | 0.165 µM |  | 
CN1CCN(c2ccc(Nc3ncc4c(n3)N3CCN=C3N(c3c(F)cccc3Cl)C4=O)cc2C(F)(F)F)CC1 [Example 48, 6-(2-Chloro-6-fluorophenyl)-2-((4-(4-methylpiperazin-1-yl)-3-(trifluoromethyl)phenyl)amino)-8,9-dihydroimidazo[1,2-a]pyrimido[5,4-e]pyrimidin-5(6H)-one] | 29% | 75% | 91% | 0.117 µM | 1.12 µM |  | 
CN1CCN(c2ccc(Nc3cc4c(cn3)C(=O)N(c3ccccc3Cl)C3=NCCN34)cc2)CC1 [Example 3, 4-(2-Chlorophenyl)-8-((4-(4-methylpiperazin-1-yl)phenyl)amino)-2,4-dihydroimidazo[1,2-a]pyrido[3,4-e]pyrimidin-5(1H)-one] |  |  |  | > 100 µM |  | > 10 µM | 56%
CN1Cc2cc(Nc3ncc4c(n3)N3CCN=C3N(c3c(F)cccc3Cl)C4=O)ccc2C2(CC2)C1 [Example 10, 6-(2-Chloro-6-fluorophenyl)-2-((2′-methyl-2′,3′-dihydro-1′H-spiro[cyclopropane-1,4′-isoquinolin]-7′-yl)amino)-8,9-dihydroimidazo[1,2-a]pyrimido[5,4-e]pyrimidin-5(6H)-one] | 46% | 93% | 98% | 0.0887 µM |  | 0.172 µM | 
C[C@@H]1CN(c2ccc(Nc3ncc4c(n3)N3CCN=C3N(c3c(F)cccc3Cl)C4=O)c(F)c2)C[C@H](C)N1C [Example 37, 6-(2-Chloro-6-fluorophenyl)-2-((2-fluoro-4-((3S,5R)-3,4,5-trimethylpiperazin-1-yl)phenyl)amino)-8,9-dihydroimidazo[1,2-a]pyrimido[5,4-e]pyrimidin-5(6H)-one] |  |  | 1% | > 100 µM |  | > 10 µM | 
CN(C)CCN(C)c1ccc(Nc2ncc3c(n2)N2CCN=C2N(c2c(F)cccc2Cl)C3=O)cc1 [Example 109, 6-(2-Chloro-6-fluorophenyl)-2-((4-((2-(dimethylamino)ethyl)(methyl)amino)phenyl)amino)-8,9-dihydroimidazo[1,2-a]pyrimido[5,4-e]pyrimidin-5(6H)-one] |  |  | 96% | 1.15 µM |  | 0.884 µM | 
Cc1cc(Nc2ncc3c(n2)N2CCN=C2N(c2c(F)cccc2Cl)C3=O)cc(C)c1N1CCN(C)CC1 [Example 56, 6-(2-Chloro-6-fluorophenyl)-2-((3,5-dimethyl-4-(4-methylpiperazin-1-yl)phenyl)amino)-8,9-dihydroimidazo[1,2-a]pyrimido[5,4-e]pyrimidin-5(6H)-one] | 14% | 80% | 90% | 0.047 µM | 0.318 µM |  | 
CC(C)N1[C@H](C)CN(c2ccc(Nc3ncc4c(n3)N3CCN=C3N(c3c(Cl)cccc3Cl)C4=O)cc2)C[C@@H]1C [Example 65, 6-(2,6-Dichlorophenyl)-2-((4-((3S,5R)-4-isopropyl-3,5-dimethylpiperazin-1-yl)phenyl)amino)-8,9-dihydroimidazo[1,2-a]pyrimido[5,4-e]pyrimidin-5(6H)-one] | 18% | 68% | 98% | 0.103 µM |  | 0.405 µM | 
Cc1cc(Nc2ncc3c(n2)N2CCN=C2N(c2c(C)cccc2Cl)C3=O)cc(Cl)c1N1CCN(C)CC1 [Example 173, 6-(2-Chloro-6-methylphenyl)-2-((3-chloro-5-methyl-4-(4-methylpiperazin-1-yl)phenyl)amino)-8,9-dihydroimidazo[1,2-a]pyrimido[5,4-e]pyrimidin-5(6H)-one] | 26% | 71% | 94% | 0.0992 µM | 0.226 µM |  | 
